Holding throughout (type): cell-based
The test system of assay [1] is E. coli cells. In words: Recovery of porphyrine bonded to E. coli cells after dark incubation and washing steps. The note with it: 1 μM porphyrine, 5 minutes. How it is done: (§1) For this, porphyrines of different chemical structures (see drawing) were incubated with E. coli and S. aureus cells in the dark. The porphyrines were added to aqueous suspension comprising an amount of bacterial cells of 10^8 per ml and stored for 5 minutes in the dark. Finally, the amount of porphyrine bonded to the cells was measured depending on the number of washing […] (the washing was carried out by means of physiological solutions) by chemical extraction followed spectrophotofluorimetric determination.

Assay [2] has as its system S. aureus cells. Nature of the assay: Recovery of porphyrine bonded to S. aureus cells after dark incubation and washing steps. The note with it: 1 μM porphyrine, 5 minutes in the dark. On the procedure: as §1
The test system of assay [3] is S. aureus cells. Nature of the assay: Inhibition of growth of S. aureus cells after 5-minute incubation in the dark (optical density at 650 nm). Conditions: growth at 37° C. On the procedure:
as §1
(§2) The survival rate of the bacterial cells after incubation with the different porphyrines was determined by diluting 0.3 ml of the suspension with 2.7 ml of the culture medium and recording the optical density at 650 nm depending on the time. The suspensions were kept at 37° C. The percentual inhibition of growth was calculated with reference to a suspension of comparative cells which had been treated with the same method, however had not been added to the porphyrine.

Assay [4] deals with E. coli cells. In words: Inhibition of growth of E. coli cells after 5-minute incubation in the dark (optical density at 650 nm). Conditions: growth at 37° C. How it is done:
as §1, §2

`CCCCCC[n+]1ccc(-c2c3nc(c(-c4cc[n+](CCCCCC)cc4)c4ccc([nH]4)c(-c4cc[n+](CCCCCC)cc4)c4nc(c(-c5cc[n+](CCCCCC)cc5)c5ccc2[nH]5)C=C4)C=C3)cc1` [tetra-C6]: in the assay with E. coli cells [1], the “recovery (nmol/mg protein) 1 washing step” value came to 1.39 ± 0.23 nmol/mg protein, the “recovery (nmol/mg protein) 3 washing steps” value is given as 0.94 ± 0.24 nmol/mg protein, the “% bonded after 3 washing steps” value was found to be 57.0% and the “recovery (nmol/mg protein) no washing” value is on record as 1.65 ± 0.17 nmol/mg protein.

In the case of `CCCCCCCCCCCCCCCCCCCCCC[n+]1ccc(-c2c3nc(c(-c4cc[n+](C)cc4)c4ccc([nH]4)c(-c4cc[n+](C)cc4)c4nc(c(-c5cc[n+](C)cc5)c5ccc2[nH]5)C=C4)C=C3)cc1` [mono-C22], in the assay on S. aureus cells [2], the “recovery (nmol/mg protein) 1 washing step” value was found to be 5.65 ± 0.13 nmol/mg protein, the “recovery (nmol/mg protein) 3 washing steps” value is reported as 4.95 ± 0.30 nmol/mg protein, the “% bonded after 3 washing steps” value is reported as 77.5% and the “recovery (nmol/mg protein) no washing” value came out at 6.39 ± 0.40 nmol/mg protein. Besides, in the assay on E. coli cells [1], the “recovery (nmol/mg protein) 1 washing step” value is 2.60 ± 0.04 nmol/mg protein, the “recovery (nmol/mg protein) 3 washing steps” value is recorded as 3.04 ± 0.34 nmol/mg protein, the “% bonded after 3 washing steps” value was 59.4% and the “recovery (nmol/mg protein) no washing” value was determined as 5.12 ± 0.46 nmol/mg protein. Moreover, the “inhibition of growth (%) S. aureus” value in the assay on S. aureus cells [3] (1 μM porphyrine) is listed as 39.9%. In addition, the “inhibition of growth (%) S. aureus” value in the assay with S. aureus cells [3] (10 μM porphyrine) is listed as 70.1%. The “inhibition of growth (%) E. coli” value with E. coli cells [4] (1 μM porphyrine) was 19.1%. Further, the “inhibition of growth (%) E. coli” value with E. coli cells [4] (10 μM porphyrine) is reported as 16.8%.

With `C[n+]1ccc(-c2c3nc(c(-c4cc[n+](C)cc4)c4ccc([nH]4)c(-c4cc[n+](Cc5ccccc5)cc4)c4nc(c(-c5cc[n+](C)cc5)c5ccc2[nH]5)C=C4)C=C3)cc1` [mono-benzyl], in the assay on E. coli cells [1], the “recovery (nmol/mg protein) 1 washing step” value amounted to 1.67 ± 0.06 nmol/mg protein, the “recovery (nmol/mg protein) 3 washing steps” value was found to be 0.71 ± 0.08 nmol/mg protein, the “% bonded after 3 washing steps” value turned out to be 28.2% and the “recovery (nmol/mg protein) no washing” value was determined as 2.52 ± 0.13 nmol/mg protein. Also, the “inhibition of growth (%) S. aureus” value with S. aureus cells [3] (1 μM porphyrine) stood at 1.6%. Besides, in the assay with S. aureus cells [3] (10 μM porphyrine), the “inhibition of growth (%) S. aureus” value was 25%. In addition, the “inhibition of growth (%) E. coli” value in the assay on E. coli cells [4] (1 μM porphyrine) came to 0.1%. Besides, the “inhibition of growth (%) E. coli” value in the assay on E. coli cells [4] (10 μM porphyrine) amounted to 13%.

For the compound `CCCCCCCCCCCCCCCCCC[n+]1ccc(-c2c3nc(c(-c4cc[n+](C)cc4)c4ccc([nH]4)c(-c4cc[n+](C)cc4)c4nc(c(-c5cc[n+](C)cc5)c5ccc2[nH]5)C=C4)C=C3)cc1` [mono-C18], in the assay on E. coli cells [1], the “recovery (nmol/mg protein) 1 washing step” value is recorded as 4.08 ± 0.62 nmol/mg protein, the “recovery (nmol/mg protein) 3 washing steps” value is reported as 2.54 ± 0.38 nmol/mg protein, the “% bonded after 3 washing steps” value is listed as 60.5% and the “recovery (nmol/mg protein) no washing” value is 4.20 ± 0.16 nmol/mg protein. The “inhibition of growth (%) S. aureus” value in the assay with S. aureus cells [3] (1 μM porphyrine) is 39.8%. Besides, in the assay on S. aureus cells [3] (10 μM porphyrine), the “inhibition of growth (%) S. aureus” value stood at 96.6%. Further, the “inhibition of growth (%) E. coli” value in the assay on E. coli cells [4] (1 μM porphyrine) was determined as 2.7%. The “inhibition of growth (%) E. coli” value in the assay with E. coli cells [4] (10 μM porphyrine) came to 85.7%.

As to `C[n+]1ccc(-c2c3nc(c(-c4cc[n+](C)cc4)c4ccc([nH]4)c(-c4cc[n+](C)cc4)c4nc(c(-c5cc[n+](C)cc5)c5ccc2[nH]5)C=C4)C=C3)cc1` [T4MPyP], in the assay on S. aureus cells [2], the “recovery (nmol/mg protein) 1 washing step” value is listed as 0.10 ± 0.01 nmol/mg protein, the “recovery (nmol/mg protein) 3 washing steps” value is 0.11 ± 0.01 nmol/mg protein, the “% bonded after 3 washing steps” value is 16.2% and the “recovery (nmol/mg protein) no washing” value is recorded as 0.68 ± 0.05 nmol/mg protein. For the same compound, in the assay with E. coli cells [1], the “recovery (nmol/mg protein) 1 washing step” value is 0.19 ± 0.04 nmol/mg protein, the “recovery (nmol/mg protein) 3 washing steps” value turned out to be 0.05 ± 0.01 nmol/mg protein, the “% bonded after 3 washing steps” value is 11.4% and the “recovery (nmol/mg protein) no washing” value was 0.44 ± 0.04 nmol/mg protein. In addition, the “inhibition of growth (%) S. aureus” value in the assay with S. aureus cells [3] (1 μM porphyrine) was 3.1%. The “inhibition of growth (%) S. aureus” value in the assay with S. aureus cells [3] (10 μM porphyrine) stood at 7.8%. Moreover, in the assay with E. coli cells [4] (1 μM porphyrine), the “inhibition of growth (%) E. coli” value stood at 0.6%. For the same compound, the “inhibition of growth (%) E. coli” value with E. coli cells [4] (10 μM porphyrine) came to 3.1%.

With `CCCCCC[n+]1ccc(-c2c3nc(c(-c4cc[n+](C)cc4)c4ccc([nH]4)c(-c4cc[n+](C)cc4)c4nc(c(-c5cc[n+](C)cc5)c5ccc2[nH]5)C=C4)C=C3)cc1` [mono-C6], in the assay on S. aureus cells [2], the “recovery (nmol/mg protein) 1 washing step” value is 2.05 ± 0.11 nmol/mg protein, the “recovery (nmol/mg protein) 3 washing steps” value was determined as 1.02 ± 0.12 nmol/mg protein, the “% bonded after 3 washing steps” value was determined as 33.6% and the “recovery (nmol/mg protein) no washing” value is listed as 3.04 ± 0.05 nmol/mg protein. In the assay on E. coli cells [1], the “recovery (nmol/mg protein) 1 washing step” value came to 1.01 ± 0.12 nmol/mg protein, the “recovery (nmol/mg protein) 3 washing steps” value was 0.39 ± 0.12 nmol/mg protein, the “% bonded after 3 washing steps” value amounted to 24.7% and the “recovery (nmol/mg protein) no washing” value is 1.58 ± 0.28 nmol/mg protein. Also, the “inhibition of growth (%) S. aureus” value in the assay on S. aureus cells [3] (1 μM porphyrine) came to 5.1%. Further, in the assay with S. aureus cells [3] (10 μM porphyrine), the “inhibition of growth (%) S. aureus” value is 8.8%. The “inhibition of growth (%) E. coli” value with E. coli cells [4] (1 μM porphyrine) came to 0.5%. In addition, in the assay with E. coli cells [4] (10 μM porphyrine), the “inhibition of growth (%) E. coli” value was 14.6%.

Consider `CCCCCCCCCC[n+]1ccc(-c2c3nc(c(-c4cc[n+](C)cc4)c4ccc([nH]4)c(-c4cc[n+](C)cc4)c4nc(c(-c5cc[n+](C)cc5)c5ccc2[nH]5)C=C4)C=C3)cc1` [mono-C10], for which, in the assay with S. aureus cells [2], the “recovery (nmol/mg protein) 1 washing step” value came to 5.70 ± 0.54 nmol/mg protein, the “recovery (nmol/mg protein) 3 washing steps” value is 4.09 ± 0.13 nmol/mg protein, the “% bonded after 3 washing steps” value is recorded as 57.4% and the “recovery (nmol/mg protein) no washing” value is recorded as 7.13 ± 0.25 nmol/mg protein. Moreover, in the assay with E. coli cells [1], the “recovery (nmol/mg protein) 1 washing step” value was determined as 2.78 ± 0.53 nmol/mg protein, the “recovery (nmol/mg protein) 3 washing steps” value worked out at 1.48 ± 0.38 nmol/mg protein, the “% bonded after 3 washing steps” value is recorded as 40.4% and the “recovery (nmol/mg protein) no washing” value was 3.66 ± 0.071 nmol/mg protein. For the same compound, the “inhibition of growth (%) S. aureus” value with S. aureus cells [3] (1 μM porphyrine) was determined as 27.8%. In the assay with S. aureus cells [3] (10 μM porphyrine), the “inhibition of growth (%) S. aureus” value is 50%. Further, the “inhibition of growth (%) E. coli” value with E. coli cells [4] (1 μM porphyrine) is on record as 4.6%. In addition, the “inhibition of growth (%) E. coli” value in the assay on E. coli cells [4] (10 μM porphyrine) came out at 10.7%.

Turning to `CCCCCCCCCCCCCC[n+]1ccc(-c2c3nc(c(-c4cc[n+](C)cc4)c4ccc([nH]4)c(-c4cc[n+](C)cc4)c4nc(c(-c5cc[n+](C)cc5)c5ccc2[nH]5)C=C4)C=C3)cc1` [mono-C14], in the assay with S. aureus cells [2], the “recovery (nmol/mg protein) 1 washing step” value stood at 5.53 ± 0.74 nmol/mg protein, the “recovery (nmol/mg protein) 3 washing steps” value was found to be 4.32 ± 0.13 nmol/mg protein, the “% bonded after 3 washing steps” value is given as 65.9% and the “recovery (nmol/mg protein) no washing” value turned out to be 6.56 ± 0.40 nmol/mg protein. For the same compound, in the assay with E. coli cells [1], the “recovery (nmol/mg protein) 1 washing step” value stood at 3.06 ± 0.25 nmol/mg protein, the “recovery (nmol/mg protein) 3 washing steps” value is reported as 2.28 ± 0.04 nmol/mg protein, the “% bonded after 3 washing steps” value is 42.4% and the “recovery (nmol/mg protein) no washing” value is 5.38 ± 0.06 nmol/mg protein. In the assay on S. aureus cells [3] (1 μM porphyrine), the “inhibition of growth (%) S. aureus” value was 69.1%. The “inhibition of growth (%) S. aureus” value with S. aureus cells [3] (10 μM porphyrine) was 92.4%. Also, the “inhibition of growth (%) E. coli” value in the assay with E. coli cells [4] (1 μM porphyrine) is recorded as 46.1%. Moreover, the “inhibition of growth (%) E. coli” value in the assay with E. coli cells [4] (10 μM porphyrine) is recorded as 100%.
